The target in experiment [1] is T1, human neutrophil elastase (Homo sapiens, UniProt P08246).
T1 construct: Enzyme is purified from human sputum, although recently it has become commercially available; from tissue; host or cells: human sputum
T1 sequence (P08246 30-247 limits assumed): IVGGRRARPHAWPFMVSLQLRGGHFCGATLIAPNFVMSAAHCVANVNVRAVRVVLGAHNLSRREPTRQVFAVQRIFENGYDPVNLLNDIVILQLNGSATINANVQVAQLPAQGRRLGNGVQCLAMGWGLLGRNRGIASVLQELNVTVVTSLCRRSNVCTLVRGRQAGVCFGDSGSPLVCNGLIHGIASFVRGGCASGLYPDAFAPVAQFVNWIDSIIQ
Nature of the experiment: Human neutrophil elastase in vitro inhibition assay, N-MeOSuc-Ala-Ala-Pro-Val-p-nitroanilide substrate. The experiment is classed as biochemical. The note with it: for human neutrophil elastase, using N-MeOSucAlaAlaProVal-pNA as substrate; enzyme purified from human sputum. The method, then: Human neutrophil elastase is assayed in vitro using N-MeOSuc-[…]-nitroanilide, available commercially, as substrate. The assay buffer, pH and assay techniques are similar to those described by Mehdi, et al., Biochemical and Biophysical Research Communications, 166, 595 (1990). Enzyme is purified from human sputum, although recently it has become commercially available. Kinetic characterization of immediate inhibitors is by means of the Dixon plot, whereas the characterization of slow- and/or tight-binding inhibitors used data analysis techniques reviewed by Williams and Morrison. The synthesis and analytical use of a highly sensitive and convenient substrate of elastase is described in J. Bieth, B. Spiess and C. G. Wermuth, Biochemical Medicine, 11 (1974)350-375.

In experiment [2] the target is human neutrophil elastase (human) (UniProt P08246). Nature of the experiment: in vitro enzyme inhibition kinetics of human neutrophil elastase, substrate N-MeOSuc-Ala-Ala-Pro-Val-p-nitroanilide.

This passage reports Ki results from patent US6693072B2, “Elastase inhibitors” (Aventis Pharmaceuticals Inc., priority 1994, dated 2004).

pKi: −log10 of the molar value.

In general, Ki refers to a dissociation constant, usually derived from enzyme kinetics or from competition with a known ligand. Low values mean tighter binding, high ones weaker binding. As to `CC(C)C(NC(=O)C1CCCCN1C(=O)[C@@H](NC(=O)c1ccc(C(=O)N2CCOCC2)cc1)C(C)C)C(=O)C(F)(F)C(F)(F)F` (mixture of isomers) [MDL 105,759, N-[4-(4-morpholinylcarbonyl)benzoyl]-L-valyl-N′-[3,3,4,4,4-pentafluoro-1-(1-methylethyl)-2-oxobutyl]-D,L-2-pipecolinamide], the Ki in experiment [1] is 150 nM. Still for that read-out and setting: to `CC(C)C(NC(=O)[C@H]1C[C@@H](OCc2ccccc2)CN1C(=O)[C@@H](NC(=O)c1ccc(C(=O)N2CCOCC2)cc1)C(C)C)C(=O)C(F)(F)C(F)(F)F` (stereo partly drawn) [MDL 104,865, N-[4-(4-morpholinylcarbonyl)benzoyl]-L-valyl-N′-[3,3,4,4,4-pentafluoro-1-(1-methylethyl)-2-oxobutyl]-trans-4-benzyloxyprolinamide] belongs 20 nM.

Consider `CC(C)C(NC(=O)[C@H]1CCN1C(=O)[C@@H](NC(=O)c1ccc(C(=O)N2CCOCC2)cc1)C(C)C)C(=O)C(F)(F)C(F)(F)F` (stereo partly drawn) [MDL 104,238, N-[4-(4-morpholinylcarbonyl)benzoyl]-L-valyl-N′-[3,3,4,4,4-pentafluoro-1-(1-methylethyl)-2-oxobutyl]-L-2-azetamide], for which, in experiment [1], the Ki was 34 nM. By pKi is commonly meant the Ki on a negative log10 scale, so that one unit is a factor of ten. The molecule “N-[4-(4-morpholinylcarbonyl)benzoyl]-L-valyl-N'-[3,3,4,4,4-pentafluoro-1-(1-methylethyl)-2-oxobutyl]-trans-4-acetoxyprolinamide (peptide)” had a negative logarithm of the Ki (pKi) in experiment [2] of 7.40.
